Experimental data: patent US9221756B2, “Pyrrole derivatives” (priority 2011, dated 2015)
Where two headings read alike, the source gives them in different places.

Experiments:
[1] = type: in vitro ADME; conditions: human plasma; for [ ] (μM) t0 min. Prodrug (Human) / [ ] (μM) t15 min. Prodrug (Human) / [ ] (μM) t30 min. Prodrug (Human) / [ ] (μM) t60 min. Prodrug (Human) / [ ] (μM) t120 min. Prodrug (Human): 37° C., 10 μM start, prodrug remaining; for [ ] (μM) t15 min. Prodrug (Human): 15 min; for [ ] (μM) t30 min. Prodrug (Human): 30 min; for [ ] (μM) t60 min. Prodrug (Human): 60 min; for [ ] (μM) t120 min. Prodrug (Human): 120 min
Method: (§1) The samples were then analysed by LC-MS/MS to obtain the amount of active compound appearing and prodrug derivative remaining over time. The mouse plasma assay system is considered to be a good model for human behaviour. Nevertheless data obtained in a human plasma assay system was obtained in some cases.
(§2) Prodrug derivatives were assessed in the mouse and human plasma stability assay at a concentration of 10 μM. Test compounds were diluted in DMSO to a final stock concentration of 10 mM. For the purpose of the assay, the stocks prepared were further diluted in DMSO to a concentration of 400 μM and […] were added to 195 μl of mouse or human plasma (pH 7.4) and then incubated at 37° C. The final concentration of DMSO in the plate was 2.5% (v/v). Reactions were terminated at 0, 15, 30, 60 and 120 min after incubation by adding 400 μl of acetonitrile containing 0.55 μM metoprolol and 1% (v/v) formic acid. The plate was then centrifuged at 3000 rpm, for 45 min, at 4° C. 80 μl of supernatant were transferred into a conical bottom 96 well glass coated plate. 40 μl of water were added prior to analysis for prodrug derivative and active species by LC-MS/MS. This assay was performed by a contract research organisation, Cyprotex Discovery Limited, UK, at the request of the inventors at Leicester.
(§3) (1) The active compound was quantified using a 6 point calibration curve prepared in deactivated mouse and human plasma. (2) The percentage of parent compound remaining at each time point relative to 0 min sample was calculated from LC-MS/MS peak area ratios (compound peak area/internal standard peak area). This percentage was then used to determine the concentration of the parent compound at each time point in reference to the starting concentration (10 μM) at time 0 min.

pneumolysin = pneumolysin (Streptococcus pneumoniae serotype 2, UniProt Q04IN8); assay: Inhibition of the haemolytic activity of pneumolysin (sheep erythrocytes); type: cell-based; conditions: class symbols of Table 1
pneumolysin, sequence (Q04IN8 whole entry): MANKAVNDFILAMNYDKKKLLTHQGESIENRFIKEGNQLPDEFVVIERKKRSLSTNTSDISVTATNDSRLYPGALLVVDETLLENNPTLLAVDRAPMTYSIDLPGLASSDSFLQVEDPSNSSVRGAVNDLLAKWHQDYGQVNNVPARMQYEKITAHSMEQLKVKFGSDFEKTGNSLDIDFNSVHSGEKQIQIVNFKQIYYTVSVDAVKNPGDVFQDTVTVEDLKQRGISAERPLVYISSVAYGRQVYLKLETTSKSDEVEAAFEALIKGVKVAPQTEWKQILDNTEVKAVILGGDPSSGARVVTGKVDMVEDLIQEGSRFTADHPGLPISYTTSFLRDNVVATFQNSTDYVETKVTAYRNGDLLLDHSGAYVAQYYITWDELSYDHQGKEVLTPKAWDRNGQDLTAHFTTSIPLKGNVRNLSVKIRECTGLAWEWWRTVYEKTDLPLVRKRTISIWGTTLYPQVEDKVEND

[2] = Conversion of prodrug derivatives to active inhibitors in mouse plasma; type: in vitro ADME; conditions: 37° C., 10 μM start, prodrug remaining; for [ ] (μM) t0 min. Prodrug: 0 min; for [ ] (μM) t15 min. Prodrug: 15 min; for [ ] (μM) t30 min. Prodrug: 30 min; for [ ] (μM) t60 min. Prodrug: 60 min; for [ ] (μM) t120 min. Prodrug: 120 min
Method: as §1, §2, §3

[3] = IC50, inhibition of pneumolysin-induced haemolysis of sheep erythrocytes
[4] = inhibition of pneumolysin-induced haemolysis of sheep erythrocytes, read-out: IC50

SMILES: CCOC(=O)c1c(O)c(OP(=O)(O)O)c(C(=O)N(C)C)n1-c1ccc(OC)cc1 [UL1-070, ethyl 5-(dimethylcarbamoyl)-3-hydroxy-1-(4-methoxyphenyl)-4-(phosphonooxy)-1H-pyrrole-2-carboxylate]
- [ ] (μM) t0 min. Prodrug (Human) ([1]; 0 min): 10 µM
- [ ] (μM) t15 min. Prodrug (Human) [1]: 8.02 µM
- [ ] (μM) t30 min. Prodrug (Human) [1]: 8.28 µM
- [ ] (μM) t60 min. Prodrug (Human) [1]: 7.70 µM
- [ ] (μM) t120 min. Prodrug (Human) [1]: 7.48 µM
- IC50 (pneumolysin; [3]): 20 to 60 µM
- [ ] (μM) t0 min. Prodrug [2]: 10 µM
- [ ] (μM) t15 min. Prodrug [2]: 6.40 µM
- [ ] (μM) t30 min. Prodrug [2]: 4.73 µM
- [ ] (μM) t60 min. Prodrug [2]: 2.43 µM
- [ ] (μM) t120 min. Prodrug [2]: 0.93 µM

SMILES: CCOC(=O)c1c(OCOP(=O)(O)O)c(O)c(C(=O)N(C)C)n1-c1ccc(OC)cc1 [UL1-115, ethyl 5-(dimethylcarbamoyl)-4-hydroxy-1-(4-methoxyphenyl)-3-((phosphonooxy)methoxy)-1H-pyrrole-2-carboxylate]
- [ ] (μM) t0 min. Prodrug (Human) ([1]; 0 min): 10 µM
- [ ] (μM) t15 min. Prodrug (Human) [1]: 10.8 µM
- [ ] (μM) t30 min. Prodrug (Human) [1]: 9.41 µM
- [ ] (μM) t60 min. Prodrug (Human) [1]: 6.69 µM
- [ ] (μM) t120 min. Prodrug (Human) [1]: 2.98 µM
- IC50 (pneumolysin; [3]): 20 to 60 µM
- [ ] (μM) t0 min. Prodrug [2]: 10 µM
- [ ] (μM) t15 min. Prodrug [2]: 7.56 µM
- [ ] (μM) t30 min. Prodrug [2]: 4.04 µM
- [ ] (μM) t60 min. Prodrug [2]: 1.54 µM
- [ ] (μM) t120 min. Prodrug [2]: 0.38 µM

SMILES: CCOC(=O)c1c(OC(=O)C(C)(C)COCCOCCOC)c(OC(=O)C(C)(C)COCCOCCOC)c(C(=O)N(C)C)n1-c1ccc(OC)cc1 [UL1-111, 2-(dimethylcarbamoyl)-5-(ethoxycarbonyl)-1-(4-methoxyphenyl)-1H-pyrrole-3,4-diyl bis(3-(2-(2-methoxyethoxy)ethoxy)-2,2-dimethylpropanoate)]
- [ ] (μM) t0 min. Active (Human) (UL1-012) ([1]; 10 μM prodrug, active UL1-012 appearing, 0 min): <LOQ
- [ ] (μM) t0 min. Prodrug (Human) ([1]; 0 min): 10 µM
- [ ] (μM) t15 min. Prodrug (Human) [1]: 2.84 µM
- [ ] (μM) t30 min. Prodrug (Human) [1]: 0.80 µM
- [ ] (μM) t60 min. Prodrug (Human) [1]: 0.09 µM
- [ ] (μM) t120 min. Prodrug (Human) [1]: 0.00 µM
- IC50 (pneumolysin; [3]): < 10 µM
- [ ] (μM) t0 min. Prodrug [2]: 10 µM
- [ ] (μM) t15 min. Prodrug [2]: 4.74 µM
- [ ] (μM) t30 min. Prodrug [2]: 2.47 µM
- [ ] (μM) t60 min. Prodrug [2]: 1.16 µM
- [ ] (μM) t120 min. Prodrug [2]: 0.47 µM

SMILES: COc1ccc(-n2c(C(=O)N(C)C)c(OC(=O)C(C)C)c(OC(=O)C(C)C)c2C(=O)N(C)C)cc1 [UL1-114, 2,5-bis(dimethylcarbamoyl)-1-(4-methoxyphenyl)-1H-pyrrole-3,4-diyl bis(2-methylpropanoate)]
- [ ] (μM) t0 min. Prodrug (Human) ([1]; 0 min): 10 µM
- [ ] (μM) t15 min. Prodrug (Human) [1]: 9.53 µM
- [ ] (μM) t30 min. Prodrug (Human) [1]: 9.48 µM
- [ ] (μM) t60 min. Prodrug (Human) [1]: 8.22 µM
- [ ] (μM) t120 min. Prodrug (Human) [1]: 7.22 µM
- IC50 (pneumolysin; [3]): 10 to 20 µM
- [ ] (μM) t0 min. Prodrug [2]: 10 µM
- [ ] (μM) t15 min. Prodrug [2]: 0 µM
- [ ] (μM) t30 min. Prodrug [2]: 0 µM
- [ ] (μM) t60 min. Prodrug [2]: 0 µM
- [ ] (μM) t120 min. Prodrug [2]: 0 µM

SMILES: CCOC(=O)c1c(OC(=O)N2CCC(N3CCCCC3)CC2)c(OC(=O)N2CCC(N3CCCCC3)CC2)c(C(=O)N(C)C)n1-c1ccc(OC)cc1 [UL1-065, 2-(dimethylcarbamoyl)-5-(ethoxycarbonyl)-1-(4-methoxyphenyl)-1H-pyrrole-3,4-diyl bis([1,4′-bipiperidine]-1′-carboxylate)]
- IC50 (pneumolysin; [4]): > 60 µM
- [ ] (μM) t0 min. Prodrug [2]: 10 µM
- [ ] (μM) t15 min. Prodrug [2]: 4.21 µM
- [ ] (μM) t30 min. Prodrug [2]: 3.72 µM
- [ ] (μM) t60 min. Prodrug [2]: 2.57 µM
- [ ] (μM) t120 min. Prodrug [2]: 1.14 µM

SMILES: CCOC(=O)c1c(O)c(OCOP(=O)(O)O)c(C(=O)N(C)C)n1-c1ccc(OC)cc1 [UL1-109, ethyl 5-(dimethylcarbamoyl)-3-hydroxy-1-(4-methoxyphenyl)-4-((phosphonooxy)methoxy)-1H-pyrrole-2-carboxylate]
- [ ] (μM) t0 min. Prodrug (Human) ([1]; 0 min): 10 µM
- [ ] (μM) t15 min. Prodrug (Human) [1]: 6.22 µM
- [ ] (μM) t30 min. Prodrug (Human) [1]: 5.37 µM
- [ ] (μM) t60 min. Prodrug (Human) [1]: 3.39 µM
- [ ] (μM) t120 min. Prodrug (Human) [1]: 1.72 µM
- IC50 (pneumolysin; inhibition of pneumolysin-induced haemolysis of sheep erythrocytes): > 60 µM
- [ ] (μM) t0 min. Prodrug [2]: 10 µM
- [ ] (μM) t15 min. Prodrug [2]: 6.87 µM
- [ ] (μM) t30 min. Prodrug [2]: 4.84 µM
- [ ] (μM) t60 min. Prodrug [2]: 2.45 µM
- [ ] (μM) t120 min. Prodrug [2]: 0.73 µM

SMILES: CCOC(=O)c1c(O)c(OC(=O)N2CCC(N3CCCCC3)CC2)c(C(=O)N(C)C)n1-c1ccc(OC)cc1 [UL1-071, 2-(dimethylcarbamoyl)-5-(ethoxycarbonyl)-4-hydroxy-1-(4-methoxyphenyl)-1H-pyrrol-3-yl [1,4′-bipiperidine]-1′-carboxylate]
- IC50 (pneumolysin; [4]): 20 to 60 µM
- [ ] (μM) t0 min. Prodrug [2]: 10 µM
- [ ] (μM) t15 min. Prodrug [2]: 9.50 µM
- [ ] (μM) t30 min. Prodrug [2]: 9.00 µM
- [ ] (μM) t60 min. Prodrug [2]: 8.72 µM
- [ ] (μM) t120 min. Prodrug [2]: 7.39 µM
